Where two headings read alike, the source gives them in different places.
Assays:
[1] = U.S. population of 20 years and older, cited from earlier work
[2] = NIST SRM 1950 human plasma; reference value provided by NIST; cited from earlier work
[3] = On-chip SPE-nanoLC-MS quantification of PFCs in human blood samples
Method: Standard stock PFCs solutions are prepared by diluting PFC standards (a list of which is shown in Table 2) in methanol in polypropylene vials. All glassware is rinsed with methanol before use. For plasma samples spiked with PFCs, frozen pooled human plasma is obtained from Innovative Research Inc. (Novi, Mich.). A 5 microliter aliquot of human plasma is thawed and mixed with 2.5 microliters of internal standards (^13C8-PFOA and ^13C8-PFOS, 50 ng/ml), 2.5 microliters of PFC standards with desired concentration, and 20 microliters of cold acetonitrile with 0.1% formic acid. After vortexing for 2 min, the mixture is sonicated for 10 min and then centrifuged at 14,000 g for 15 min. 24 microliters of the supernatant is taken out and allowed to evaporate at room temperature until the volume is reduced to around 16 microliters. All samples are stored in polypropylene vials at minus 20 degree Celsius. Standard Reference Materials (SRMs) 1950 Metabolites in Human Plasma ordered from National Institute of Standards and Technology (NIST) are stored at minus 80 degree Celsius before use. NIST SRM 1950 is thawed at room temperature and prepared by the same procedure as pooled plasma samples for validation of the chip performance.
The SPE run starts with conditioning a C18-packed SPE column by flowing 20 microliters of LC solvent B (95%/5% methanol/H2O with 2 mM ammonium acetate) at 10 microliters/min through the inlet port P1. The column is then equilibrated with 20 microliters of LC solvent A (5%/95% methanol/H2O with 2 mM ammonium acetate) at 10 microliters/min. Four microliters of the sample (containing lmicroliters of plasma) are injected into a 20-microliter sample loop and loaded onto the SPE column, followed by washing with 20 microliters of LC solvent A at 10 microliters/min. Next, the analytes are eluted from the SPE column with LC solvent B at 1 microliter/min and transferred to the trap column by mixing it with another stream of LC solvent A through the port P3 (20 microliters/min). The passive microfluidic mixer including herringbone structures enables efficient mixing of two streams and thus prevents heterogeneous streaming of organic solvent from the SPE eluent, allowing the analytes to be enriched on the trap column efficiently. Finally the HPLC gradient elution at flow rate of 600 nl/min is run to separate the analytes that are to be analyzed by nanoESI-MS. The LC solvent A consists of 5%/95% methanol/H2O with 2 mM ammonium acetate, and solvent B consists of 95%/5% methanol/H2O with 2 mM ammonium acetate. […] After that, it is increased to 95% B in 5 minutes and held at 95% B for 5 minutes. Finally it returns to the initial condition (10% B) in 2 minutes and is held for 5 minutes. The total time period for each SPE-LC-MS run is about one hour. Negative-ion-mode MS detection are performed on a hybrid quadrupole/orthogonal Q-TOF API US mass spectrometer (Waters Corp.). The capillary voltage and cone voltage are set to −2.4 kV and 25 V, respectively, and the collision energy is fixed at 10 eV. The nanoelectrospray process on emitters is visualized and monitored using a Waters nanoflow camera kit equipped with a MLH-10 Zoom lenses (Computar).
The raw LC-MS data are processed using MassLynx 4.0 software package provided with the Q-TOF API US instrument (Waters Corp.). Extracted ion chromatograms (EIC) for all target analytes are generated using their corresponding precursor/product ions with a mass window of 0.10 Da. The peak area ratio of each analyte relative to its corresponding isotope-labelled internal standard is used for quantification. For perfluorocarboxylate compounds, their product ions are used for quantitation, because their product ions are more abundant (3-5 times) than precursor ions under current MS settings. The abundance ratio between the product ion and precursor ion for each perfluorocarboxylate compound is found to be consistent over the wide concentration range (1-100 ng/ml). […]

[4] = molecular target: human serum albumin (HSA) (Homo sapiens, UniProt P02768); conditions: cited from earlier work
[5] = NIST SRM 1950 human plasma, SPE-LC-MS chip
[6] = pooled human plasma, SPE-LC-MS chip

Sequence of human serum albumin (HSA) (P02768 25-609): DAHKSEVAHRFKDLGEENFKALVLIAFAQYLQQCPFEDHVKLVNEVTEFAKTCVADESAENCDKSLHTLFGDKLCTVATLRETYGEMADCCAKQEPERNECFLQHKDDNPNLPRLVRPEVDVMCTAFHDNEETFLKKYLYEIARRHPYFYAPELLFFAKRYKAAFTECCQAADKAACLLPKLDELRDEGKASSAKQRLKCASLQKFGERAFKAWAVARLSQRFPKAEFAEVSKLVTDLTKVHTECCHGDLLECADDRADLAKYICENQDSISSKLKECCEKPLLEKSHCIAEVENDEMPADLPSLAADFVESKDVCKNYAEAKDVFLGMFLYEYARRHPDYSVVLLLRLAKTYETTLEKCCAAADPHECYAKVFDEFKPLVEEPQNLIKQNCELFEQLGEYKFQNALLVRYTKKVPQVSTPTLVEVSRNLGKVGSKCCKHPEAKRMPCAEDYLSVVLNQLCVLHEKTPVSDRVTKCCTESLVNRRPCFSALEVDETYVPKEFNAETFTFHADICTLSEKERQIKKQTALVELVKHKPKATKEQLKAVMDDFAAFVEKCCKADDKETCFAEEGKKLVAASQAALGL

Q: With O=S(=O)(O)C(F)(F)C(F)(F)C(F)(F)C(F)(F)C(F)(F)C(F)(F)F [PFHxS, Perfluorohexane sulfonic acid] as the compound, how does the “Individual serum, National Exposure Report by CDC, geometric mean (95% confidence interval)” value (“Individual serum … (95% confidence interval)” for short) ([1]; survey year 2009-2010) read?
A: The value was 1.61 (1.45-1.79) ng/ml.

Q: And the “Individual serum … (95% confidence interval)” value ([1]; survey year 2011-2012)?
A: Its value is 1.28 (1.14-1.43) ng/ml.

Q: What about the “Concentration of PFCs, NIST SRM 1950, Reference Value” (shortened to “Concentration … Reference Value”) [2] of the same compound?
A: Its value is 3.25 ± 0.080 ng/mL.

Q: And the “Concentration of PFCs, NIST SRM 1950, Measured Value” [3, 5]?
A: Its value is 3.53 ± 0.38 ng/mL.

Q: And the “Concentration of PFCs, Pooled plasma, Measured Value” (“Concentration of PFCs, Pooled plasma” for short) [3, 6]?
A: Its value is 1.18 ng/mL.

Q: Which “Individual serum … (95% confidence interval)” value ([1]; survey year 2009-2010) does the source give for O=C(O)C(F)(F)C(F)(F)C(F)(F)C(F)(F)C(F)(F)C(F)(F)C(F)(F)C(F)(F)C(F)(F)F [PFDeA, Perfluorodecanoic acid] here?
A: Its value is 0.289 (0.265-0.314) ng/ml.

Q: What about the “Individual serum … (95% confidence interval)” value ([1]; survey year 2011-2012) of the same compound?
A: Its value is 0.209(0.189-0.230) ng/ml.

Q: What about the “Concentration … Reference Value” [2] of the same compound?
A: The value was 0.322 ± 0.007 ng/mL.

Q: What about the “Concentration of PFCs, NIST SRM 1950, Measured Value” [3, 5] of the same compound?
A: Its value is 0.364 ± 0.033 ng/mL.

Q: And the “Concentration of PFCs, Pooled plasma” value [3, 6]?
A: Its value is 0.279 ng/mL.

Q: Which “number of PFOA binding sites to human serum albumin (HSA)” value [4] does the source give for O=C(O)C(F)(F)C(F)(F)C(F)(F)C(F)(F)C(F)(F)C(F)(F)C(F)(F)F [PFOA, Perfluorooctanoic acid] here?
A: Its value is “over 6”.

Q: And the “PFOA bound to HSA in human blood” value ([4]; human blood)?
A: Its value is “more than 90%”.

Q: With O=S(=O)(O)C(F)(F)C(F)(F)C(F)(F)C(F)(F)C(F)(F)C(F)(F)C(F)(F)C(F)(F)F [PFOS, Perfluorooctane sulfonic acid] as the compound, how does the “Individual serum … (95% confidence interval)” value ([1]; survey year 2009-2010) read?
A: Its value is 9.72 (8.45-11.2) ng/ml.

Q: What about the “Individual serum … (95% confidence interval)” value ([1]; survey year 2011-2012) of the same compound?
A: The value was 6.71 (6.24-7.20) ng/ml.

Q: What about the “Concentration … Reference Value” [2] of the same compound?
A: Its value is 10.6 ± 0.13 ng/mL.

Q: And the “Concentration of PFCs, NIST SRM 1950, Measured Value” [3, 5]?
A: Its value is 11.1 ± 0.36 ng/mL.

Q: What about the “Concentration of PFCs, Pooled plasma” value [3, 6] of the same compound?
A: Its value is 4.76 ng/mL.

Q: Which “Individual serum … (95% confidence interval)” value ([1]; survey year 2009-2010) does the source give for NS(=O)(=O)C(F)(F)C(F)(F)C(F)(F)C(F)(F)C(F)(F)C(F)(F)C(F)(F)C(F)(F)F [PFOSA, Perfluorooctane sulfonamide] here?
A: Its value is <0.1; <0.1 ng/ml.

Q: And the “Individual serum … (95% confidence interval)” value ([1]; survey year 2011-2012)?
A: Its value is <0.1; <0.1 ng/ml.

Q: And the “Concentration of PFCs, NIST SRM 1950, Measured Value” ([3]; human)?
A: Its value is 0.172 ± 0.078 ng/mL.

Q: What about the “Concentration of PFCs, Pooled plasma” value ([3]; human) of the same compound?
A: The value was 0.094 ng/mL.

From US10627395B2, “Methods and systems for biomonitoring” (Newomics Inc., priority 2015, dated 2020)
